Several values for one entry are separate records, joined by “and”; a condition that tells them apart may be missing. Identical values can stand only once.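 Each compound was tested at five concentrations against cells in 96-well plates for 48 hours. Here, GI50 denotes the concentration required for 50% inhibition of growth. TGI: concentration producing complete growth inhibition.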
What was measured:
Assay in all cases: growth of human tumour cells (NCI), 48 h
DU-145 prostate = tested on: DU-145 prostate
HCT-15 colon = tested on: HCT-15 colon
MDA-MB-231 breast = tested on: MDA-MB-231 breast
SN12C renal = tested on: SN12C renal
OVCAR-8 ovarian = tested on: OVCAR-8 ovarian
NCI-H522 lung = tested on: NCI-H522 lung
A549 NSCLC = tested on: A549 NSCLC
NCI-H23 lung = tested on: NCI-H23 lung
SF-268 CNS = tested on: SF-268 CNS
SK-MEL-28 melanoma = tested on: SK-MEL-28 melanoma

c1ccc(/C(=N/Nc2ccncn2)c2ccccn2)cc1
TGI (DU-145 prostate): > 100 µM
TGI (HCT-15 colon): > 100 µM
TGI (MDA-MB-231 breast): > 100 µM
TGI (SN12C renal): > 100 µM
TGI (OVCAR-8 ovarian): 50.2 µM
TGI (NCI-H522 lung): 4.14 µM
TGI (A549 NSCLC): > 100 µM
TGI (NCI-H23 lung): 46.5 µM
TGI (SF-268 CNS): 50.9 µM
TGI (SK-MEL-28 melanoma): > 100 µM

COc1ccc(Nc2ccc3ccccc3c2-c2c(O)ccc3ccccc23)cc1
TGI (DU-145 prostate): 33.8 µM
TGI (HCT-15 colon): 38.5 µM
TGI (MDA-MB-231 breast): 45.7 µM
TGI (SN12C renal): 35.1 µM
TGI (OVCAR-8 ovarian): 33.6 µM
TGI (NCI-H522 lung): 32.8 µM
TGI (NCI-H23 lung): 32.4 µM
TGI (SF-268 CNS): 35.9 µM
TGI (SK-MEL-28 melanoma): 31.7 µM

O=C1C=CC(=O)c2c(O)c(NCCOCCO)c(Cl)c(O)c21
TGI (HCT-15 colon): 3.64 µM
TGI (SN12C renal): 23 µM
TGI (OVCAR-8 ovarian): 20.4 µM
TGI (NCI-H522 lung): 3.69 µM
TGI (A549 NSCLC): 19.1 µM
TGI (NCI-H23 lung): 3.51 µM

C=CC[n+]1c2ccccc2n2cc([N+](=O)[O-])ccc21
TGI (DU-145 prostate): > 100 µM
TGI (HCT-15 colon): > 100 µM
TGI (MDA-MB-231 breast): > 100 µM
TGI (SN12C renal): 68.7 µM
TGI (OVCAR-8 ovarian): 86.2 µM
TGI (NCI-H522 lung): 41 µM
TGI (A549 NSCLC): > 100 µM
TGI (NCI-H23 lung): 43 µM
TGI (SK-MEL-28 melanoma): 89.9 µM

C=CCOn1c(C=C)nc2ccc(C)cc21
TGI (HCT-15 colon): 68.2 µM
TGI (MDA-MB-231 breast): 48.1 µM
TGI (SN12C renal): 33.4 µM
TGI (OVCAR-8 ovarian): > 100 µM
TGI (NCI-H522 lung): 32.9 µM
TGI (A549 NSCLC): 68.5 µM
TGI (NCI-H23 lung): 46 µM
TGI (SF-268 CNS): 80.2 µM
TGI (SK-MEL-28 melanoma): 38 µM

Cc1c(C(=O)OCc2ccccc2)[n+](=O)c2cc(Cl)c(Cl)cc2n1[O-]
TGI (DU-145 prostate): 27.6 µM
TGI (HCT-15 colon): 34.1 µM
TGI (MDA-MB-231 breast): 38.2 µM
TGI (SN12C renal): 45.3 µM
TGI (OVCAR-8 ovarian): 46.5 µM
TGI (A549 NSCLC): 28 µM
TGI (NCI-H23 lung): 32.5 µM
TGI (SF-268 CNS): 39.8 µM
TGI (SK-MEL-28 melanoma): 64.8 µM

COc1cccc(N[C@@H]2c3cc4c(cc3C(c3cc(OC)c(O)c(OC)c3)[C@H]3C(=O)OCC32)OCO4)c1 (stereo partly specified)
TGI (HCT-15 colon): 2.39 µM
TGI (OVCAR-8 ovarian): > 23.1 µM
TGI (NCI-H522 lung): 8.02 µM
TGI (A549 NSCLC): 2.14 µM
TGI (NCI-H23 lung): 9.96 µM
TGI (SF-268 CNS): 12.8 µM
TGI (SK-MEL-28 melanoma): > 61.2 µM

Cc1ccc(S(=O)CC(CF)OCn2cc(C)c(=O)[nH]c2=O)cc1 (stereo unspecified)
TGI (DU-145 prostate): > 100 µM
TGI (HCT-15 colon): > 100 µM
TGI (MDA-MB-231 breast): > 100 µM
TGI (SN12C renal): > 100 µM
TGI (OVCAR-8 ovarian): > 100 µM
TGI (NCI-H522 lung): > 100 µM
TGI (A549 NSCLC): > 100 µM
TGI (NCI-H23 lung): > 100 µM
TGI (SF-268 CNS): > 100 µM
TGI (SK-MEL-28 melanoma): > 100 µM

CCCCCCCCCCCCCCCCCCNc1nc(=O)n(C2CC(O)C(COP(=O)(O)O)O2)cc1F (stereo unspecified)
TGI (DU-145 prostate): > 100 µM
TGI (HCT-15 colon): > 100 µM
TGI (MDA-MB-231 breast): > 100 µM
TGI (SN12C renal): > 100 µM
TGI (OVCAR-8 ovarian): > 100 µM
TGI (NCI-H522 lung): > 100 µM
TGI (A549 NSCLC): > 100 µM
TGI (NCI-H23 lung): > 100 µM
TGI (SF-268 CNS): > 100 µM
TGI (SK-MEL-28 melanoma): > 100 µM

CC1=C2C(=CO[C@H](C)[C@H]2C)C(=O)C(C(=O)O)=C1O
TGI (DU-145 prostate): 68.3 µM
GI50 (HCT-15 colon): 19.6 µM
TGI (HCT-15 colon): 60.3 µM and 40.8 µM
TGI (MDA-MB-231 breast): 58.5 µM
GI50 (SN12C renal): 9.07 µM
TGI (SN12C renal): 54.8 µM and 26.2 µM
GI50 (OVCAR-8 ovarian): 19.8 µM
TGI (OVCAR-8 ovarian): 43.3 µM and 35.2 µM
GI50 (NCI-H522 lung): 18.5 µM
TGI (NCI-H522 lung): 36.4 µM and 34.4 µM
GI50 (A549 NSCLC): 31.1 µM
TGI (A549 NSCLC): 142 µM and > 88.1 µM
GI50 (NCI-H23 lung): 24.1 µM
TGI (NCI-H23 lung): 71.4 µM and 58.4 µM
GI50 (SF-268 CNS): 22 µM
TGI (SF-268 CNS): 59.2 µM and 38.2 µM
GI50 (SK-MEL-28 melanoma): 23.9 µM
TGI (SK-MEL-28 melanoma): 93.5 µM and 54.9 µM

Cc1cc2c([nH]c3ccccc32)c(O)c1-c1c(C)cc2c([nH]c3ccccc32)c1O
TGI (DU-145 prostate): 25.7 µM
GI50 (HCT-15 colon): 10.1 µM
TGI (HCT-15 colon): 23.8 µM
TGI (MDA-MB-231 breast): 33 µM
TGI (SN12C renal): 6.44 µM
TGI (OVCAR-8 ovarian): 30.4 µM
TGI (NCI-H522 lung): 31.5 µM
TGI (A549 NSCLC): 26.8 µM
GI50 (NCI-H23 lung): 12.4 µM
TGI (NCI-H23 lung): 26.8 µM
TGI (SF-268 CNS): 27.4 µM
TGI (SK-MEL-28 melanoma): 55 µM

NNC(=O)C1(NC(=O)c2ccccc2)C(c2ccccc2)C(c2ccccc2)=NN1c1ccccc1 (stereo unspecified)
TGI (DU-145 prostate): > 100 µM
TGI (HCT-15 colon): > 100 µM
TGI (MDA-MB-231 breast): > 100 µM
TGI (SN12C renal): > 100 µM
TGI (OVCAR-8 ovarian): > 100 µM
TGI (NCI-H522 lung): > 100 µM
TGI (A549 NSCLC): > 100 µM
TGI (NCI-H23 lung): > 100 µM
TGI (SF-268 CNS): > 100 µM
TGI (SK-MEL-28 melanoma): > 100 µM

COc1cccc(C=O)c1[O-].[O]=[U](=[O])([OH2+])[OH2+]
TGI (HCT-15 colon): > 100 µM
TGI (SN12C renal): > 100 µM
TGI (OVCAR-8 ovarian): 56.2 µM
TGI (NCI-H522 lung): > 100 µM
TGI (A549 NSCLC): > 100 µM
TGI (NCI-H23 lung): > 100 µM
TGI (SF-268 CNS): > 100 µM
TGI (SK-MEL-28 melanoma): > 100 µM

C=C(C)[C@H]1C2=CC(C)=C(O2)[C@@H](O[C@@H]2c3oc(cc3C)[C@H](C(=C)C)[C@H]3C=C(CC[C@H]2C(=C)C)C(=O)O3)[C@H](C(=C)C)CCC2=C[C@H]1OC2=O
TGI (DU-145 prostate): > 100 µM
TGI (HCT-15 colon): > 100 µM
TGI (MDA-MB-231 breast): > 100 µM
TGI (SN12C renal): > 100 µM
TGI (OVCAR-8 ovarian): > 100 µM
TGI (NCI-H522 lung): > 100 µM
TGI (A549 NSCLC): > 100 µM
TGI (NCI-H23 lung): > 100 µM
TGI (SF-268 CNS): > 100 µM
TGI (SK-MEL-28 melanoma): > 100 µM

N#Cc1cc2c(n(C3OC(CO)C(O)C(O)C3O)c1=S)CCCCCC2 (stereo unspecified)
TGI (DU-145 prostate): > 100 µM
TGI (HCT-15 colon): > 100 µM
TGI (MDA-MB-231 breast): > 100 µM
TGI (SN12C renal): > 100 µM
TGI (OVCAR-8 ovarian): > 100 µM
TGI (NCI-H522 lung): > 100 µM
TGI (A549 NSCLC): > 100 µM
TGI (NCI-H23 lung): > 100 µM
TGI (SF-268 CNS): > 100 µM
TGI (SK-MEL-28 melanoma): > 100 µM

CCOP(=O)(OCC)/C(=C/c1cccs1)CC(C)=O
TGI (DU-145 prostate): > 100 µM
TGI (HCT-15 colon): > 100 µM
TGI (MDA-MB-231 breast): > 100 µM
TGI (SN12C renal): > 100 µM
TGI (OVCAR-8 ovarian): > 100 µM
TGI (A549 NSCLC): > 100 µM
TGI (NCI-H23 lung): > 100 µM
TGI (SF-268 CNS): > 100 µM
TGI (SK-MEL-28 melanoma): > 100 µM

C#CCn1c(=O)c(C)cn(/C(=C\C(=O)OCC)C(=O)OCC)c1=O
TGI (DU-145 prostate): 35 µM
TGI (HCT-15 colon): 8.23 µM
TGI (MDA-MB-231 breast): 31.2 µM
TGI (SN12C renal): 33.9 µM
TGI (OVCAR-8 ovarian): 13.2 µM
TGI (A549 NSCLC): 39.2 µM
TGI (NCI-H23 lung): 27.3 µM
TGI (SF-268 CNS): 35.7 µM
GI50 (SK-MEL-28 melanoma): 14.5 µM
TGI (SK-MEL-28 melanoma): 31 µM

CC1(C)CC2(CC(C)(C)N1O)NC(=O)OC2=O
TGI (HCT-15 colon): > 100 µM
TGI (SN12C renal): > 100 µM
TGI (OVCAR-8 ovarian): > 100 µM
TGI (NCI-H522 lung): > 100 µM
TGI (A549 NSCLC): > 100 µM
TGI (NCI-H23 lung): > 100 µM
TGI (SF-268 CNS): > 100 µM
TGI (SK-MEL-28 melanoma): > 100 µM

COc1ccc(C(SC2C(O)C(CO)OC2n2ccc(=O)[nH]c2=O)(c2ccccc2)c2ccc(OC)cc2)cc1 (stereo unspecified)
TGI (DU-145 prostate): 34.4 µM
TGI (HCT-15 colon): 33.3 µM
TGI (MDA-MB-231 breast): 31 µM
TGI (SN12C renal): 32.4 µM
TGI (OVCAR-8 ovarian): 45.5 µM
TGI (NCI-H522 lung): 31.9 µM
TGI (A549 NSCLC): 45.4 µM
TGI (NCI-H23 lung): 39.6 µM
TGI (SF-268 CNS): 40.1 µM
TGI (SK-MEL-28 melanoma): 53.9 µM

O=c1oc(C(C(F)(F)F)C(F)(F)F)nc2ccccc12
TGI (HCT-15 colon): > 100 µM
TGI (MDA-MB-231 breast): > 100 µM
TGI (OVCAR-8 ovarian): > 100 µM
TGI (NCI-H522 lung): > 100 µM
TGI (A549 NSCLC): > 100 µM
TGI (NCI-H23 lung): > 100 µM
TGI (SK-MEL-28 melanoma): > 100 µM

O=C1NC(=O)C(C(CC(=O)c2ccc(Cl)cc2)c2ccc(Cl)cc2)C(=O)N1 (stereo unspecified)
TGI (DU-145 prostate): > 100 µM
TGI (HCT-15 colon): > 100 µM
TGI (MDA-MB-231 breast): > 100 µM
TGI (SN12C renal): > 100 µM
TGI (OVCAR-8 ovarian): > 100 µM
TGI (NCI-H522 lung): > 100 µM
TGI (A549 NSCLC): > 100 µM
TGI (NCI-H23 lung): > 100 µM
TGI (SF-268 CNS): > 100 µM
TGI (SK-MEL-28 melanoma): > 100 µM

— PubChem BioAssay (NCI)
